These are literature values, as cited in patent US20260137744A1, “MELATONIN-ENRICHED COMPOSITION OF PISTACIA VERA (PISTACHIO) AND A METHOD OF PREPARATION THEREOF” (Network Nutrition Pty Limited, priority 2024, published 2026).

For `COc1ccc2[nH]cc(CCNC(C)=O)c2c1` [melatonin], the “peak concentration in the bloodstream, time after oral dosage” value (after oral dosage) was “approximately 50 minutes”. For the same molecule, under “oral melatonin, average, varies significantly among individuals”, the bioavailability entry is on record as “around 15%”.
